According to patent publication US10278931B2, “Composition for treatment of inflammatory bowel disease and atopic dermatitis” (INNOPHARMASCREEN INC., priority 2015, dated 2019):

Key:
[1] = tested on: TSLP mRNA; test: TSLP mRNA expression (RT-PCR) in HMC-1 cells; assay type: cell-based, human
Procedure: (§1) (1) Cell culture: A human mast cell line (HMC-1) was cultured in an IMDM supplemented with 10% FBS at 37° C. and 5% CO2. Candidate materials were dissolved in DMSO, and then filtered using a 0.22 μm filter. The resulting candidate materials were diluted with DMSO and the HMC-1 cells were treated therewith.
(§2) (5) Reverse transcription-polymerase chain reaction (RT-PCR) quantitative real time PCR: Total RNA was isolated from cells and tissues, and cDNA was synthesized using a reverse transcriptase and was then reacted with cytokine primers to be analyzed, followed by PCR and real-time PCR. The RT-PCR products were subjected to electrophoresis using 1.5% agarose gel for analysis.

[2] = tested on: active caspase-1; test: Western blotting of active caspase-1 in HMC-1 cells; assay type: cell-based, human
Procedure: (6) Western blotting analysis: Cells were seeded in a 6-well plate and then treated with a drug, and after a certain period of time, the cells were harvested. After harvest, the cells were washed with PBS and then lysed. 50 μg of tissue protein and cell extract protein were subjected to electrophoresis on 12% gel, transferred to nitrocellulose paper, and then blocked with 6% bovine serum albumin for 2 hours. Each protein was reacted with a primary antibody overnight and washed with PBS-tween. Thereafter, the resulting protein was reacted with a secondary antibody for 2 hours, washed, and then detected using an ECL solution kit.

[3] = target: T1, human recombinant caspase-1 (Homo sapiens, UniProt P29466); test: Recombinant caspase-1 activity assay (kit); assay type: biochemical; details: caspase-1 assay kit
T1 sequence (P29466 120-404): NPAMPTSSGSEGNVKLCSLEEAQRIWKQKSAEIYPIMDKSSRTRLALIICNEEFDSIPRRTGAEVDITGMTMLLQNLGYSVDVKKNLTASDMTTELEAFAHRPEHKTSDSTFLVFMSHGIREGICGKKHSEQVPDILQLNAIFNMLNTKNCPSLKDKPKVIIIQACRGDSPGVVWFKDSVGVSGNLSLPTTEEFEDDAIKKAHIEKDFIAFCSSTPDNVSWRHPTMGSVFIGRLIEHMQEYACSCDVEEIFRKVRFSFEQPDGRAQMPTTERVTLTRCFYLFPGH
Procedure: (4) Caspase-1 assay: Recombinant caspase-1 and a drug were allowed to react, and then activity measurement was performed using a caspase-1 assay kit (R&D Systems Inc., Minneapolis, Minn., USA).
Recombinant caspase-1 and a drug were allowed to react, and then activity was measured using a caspase-1 assay kit (R&D Systems Inc., Minneapolis, Minn., USA).

[4] = tested on: inflammatory cytokines; test: Inflammatory cytokine production and mRNA expression in HMC-1 cells; assay type: cell-based, human
Procedure: as §1, §2

[5] = tested on: SD rats; test: Acute dermal toxicity test; assay type: in vivo; details: for Number of death on day 1 / Number of death on day 2 / Number of death on day 3 / Number of death on day 4 / Number of death on day 5 / Number of death on day 6 / Number of death on day 7 / Number of death on day 8-14 / Number of death on day 0: dose group 200 (head μg/kg bw); for Number of death on day 0: single transdermal
Procedure: (1) Environmental Conditions: In the present experiment, experimental animals were bred in a clean animal breeding room (small animal room #2-302) at Hoseo University Safety Evaluation Center, set under environmental conditions: temperature of 22±3° C.; relative humidity of 50±20%; ventilation frequency of 10 to 15 times/hour; illumination period of 12 hours; and illuminance of 150 Lux to 300 Lux.
(2) Cages and rugs: Two or three animals per sex were accommodated in each of polycarbonate cages (270×500×200 mm, KYERYONG SCIENCE) with a stainless steel mesh lid during an acclimation period, and after group division, 1 animal per sex was accommodated therein. As the rugs, sterile betachips (NEPCO) irradiated with gamma rays were used.
(3) Feed and drinking water: The animals were fed freely a mouse feed for laboratory, animals (5053-Picolab Rodent 20) manufactured by PMI Nutrition International, and filtered water treated with ultraviolet sterilization (R/O water) was freely supplied as drinking water.
(4) Examination of contaminant in feed and drinking water: Contaminants in the feed were examined by receiving a test result from the feed manufacturer, and the quality of drinking water was checked for contamination by regular inspection according to the corresponding SOP of the present test institute and it was confirmed that there were no contaminants.
(A) About 24 hours before administration, hairs on the dorsal part was removed such that the hair-removed site accounted for about 10% or more of the entire surface area thereof, and attention was paid not to injure the skin.
(B) On the day of administration, a dosage for each individual was calculated, and then a test material was sufficiently wetted with a solvent and then applied on the site corresponding to about 10% (about 44 cm) of the entire surface area.
(C) The test material was kept in contact with the skin using a porous gauze, a non-irritating tape, and a bandage during the 24-hour exposure period.
(D) When the exposure period was terminated, the remaining test material was removed using tepid water.
(A) General symptom observation: All animals were observed intensively from 30 minutes to 4 hours after administration, and general symptoms were observed once a day for 14 days. At the time of observation, death and clinical symptoms were recorded on an individual basis.
(B) Body weight measurement: All animals were measured at the time of receipt, at the time of group division, immediately before administration (day of administration), and on day 1, day 4, day 7, day 10, and day 14 after initiation of administration.
(C) Autopsy: During the test, dead animals were immediately autopsied and organs were inspected with the naked eye, and at the end of the test, all living animals were euthanized by CO2 gas inhalation and venesectioned, and then the organs visually examined.
(E) Statistical analysis: Body weight data were expressed as mean and standard deviation, and no statistical analysis of body weight was performed.

Cl.N=C(N)NC(=N)Nc1ccc(Cl)cc1 [IPS-07001]
TSLP mRNA expression [1]: significantly inhibited | expression of active caspase-1 [2]: inhibited | recombinant caspase-1 activity [3]: significantly inhibited | production and mRNA expression of various inflammatory cytokines [4]: significantly inhibited | Number of death on day 1 ([5]; Female): 0 | Number of death on day 2 ([5]; Female): 0 | Number of death on day 3 ([5]; Female): 0 | Number of death on day 4 ([5]; Female): 0 | Number of death on day 5 ([5]; Female): 0 | Number of death on day 6 ([5]; Female): 0 | Number of death on day 7 ([5]; Female): 0 | Number of death on day 8-14 ([5]; Female): 0 | Number of death on day 0 ([5]; Female): 0 | Number of death on day 1 ([5]; Male): 0 | Number of death on day 2 ([5]; Male): 0 | Number of death on day 3 ([5]; Male): 0 | Number of death on day 4 ([5]; Male): 0 | Number of death on day 5 ([5]; Male): 0 | Number of death on day 6 ([5]; Male): 0 | Number of death on day 7 ([5]; Male): 0 | Number of death on day 8-14 ([5]; Male): 0 | Number of death on day 0 ([5]; Male): 0 | dead animals during the test period ([5]; all test material-administered groups, 14 days): No dead animals | Gross findings (internal and external) ([5]; rat, in vivo): NGF ^a) | body weight from day 2 ([5]; rat, in vivo): normal body weight increase pattern | body weight on day 1 after administration ([5]; rat, in vivo): decrease in body weight | clinical symptoms, 4 hour ([5]; rat, in vivo): NCS | clinical symptoms, Day 1 ([5]; rat, in vivo): NCS | clinical symptoms, Day 2 ([5]; rat, in vivo): NCS | clinical symptoms, Day 3 ([5]; rat, in vivo): NCS | clinical symptoms, Day 4 ([5]; rat, in vivo): NCS | clinical symptoms, Day 5 ([5]; rat, in vivo): NCS | clinical symptoms, Day 6 ([5]; rat, in vivo): NCS | clinical symptoms, Day 7 ([5]; rat, in vivo): NCS | clinical symptoms, Day 8 ([5]; rat, in vivo): NCS | clinical symptoms, Day 9 ([5]; rat, in vivo): NCS | clinical symptoms, Day 10-14 ([5]; rat, in vivo): NCS | visual pathological examination (autopsy) ([5]; surviving animals after observation period): no individual showed any abnormalities
